Assay results: US20060110439A1, “Dermal delivery of n-methyl-glucamine and n-methyl-glucamine compounds” (Dynamis Therapeutics, Inc., priority 2004, published 2006)

Legend:
[1] = tested on: 3DG-dependent crosslinking of collagen type I; test: Inhibition of 3DG collagen crosslinking in vitro (CnBr digest, SDS-PAGE); format: biochemical; details: calf skin collagen type 1, 5 mM 3DG plus 10 mM arginine, 24 hr
Protocol: The direct inactivation of 3DG is a method of reducing 3DG levels. Calf skin collagen type 1 (1.3 mg) was incubated with no addition, with 5 mM 3DG, or with 5 mM 3DG plus 10 mM of arginine for 24 hr. Each sample was digested with cyanogen bromide (CnBr) to create peptide fragments that are visualized by sodium-dodecyl sulfate-polyacrylamide gel electrophoresis (SDS-PAGE) (FIG. 4). Lane 2 is collagen alone; lane 3 is collagen plus 5 mM 3DG; and lane 4 is collagen plus 5 mM 3DG plus 10 mM arginine. Lanes 5, 6, and 7 are the same, but with twice as much sample applied.
Crosslinking was assessed by visually determining the amount of high molecular weight protein remaining near the origin of the resolving gel, as compared to the amount that migrates into the gel matrix. The more crosslinking that exists, the more material there is near the origin of the gel. The lanes containing collagen with 3DG (#3, #6) have more material residing at the origin than those containing collagen alone (#2, #5).

[2] = tested on: 3DG; details: in vivo; cited from earlier work

N=C(N)NCCC[C@H](N)C(=O)O [arginine]
3DG crosslinking of collagen (high molecular weight protein near gel origin, visual) [1]: able to inactivate 3DG and prevent it from crosslinking collagen

N[C@@H](CCCCNC[C@H](O)[C@@H](O)[C@@H](O)[C@H](O)CO)C(=O)O [galactitollysine]
urinary or plasma 3DG [2]: reduced

N[C@@H](CCCCNC[C@@H](O)[C@@H](O)[C@H](O)[C@H](O)CO)C(=O)O [mannitollysine]
urinary or plasma 3DG [2]: reduced

CNC[C@H](O)[C@@H](O)[C@H](O)[C@H](O)CO [meglumine, N-methyl glucamine]
urinary or plasma 3DG [2]: reduced

N[C@@H](CCCCNC[C@H](O)[C@@H](O)[C@H](O)[C@H](O)CO)C(=O)O [sorbitollysine]
urinary or plasma 3DG [2]: reduced
